Experimental data: ChEMBL document CHEMBL6092122, “Nonenzymatic Sequestering of Formaldehyde into the Antibiotic Methylene-Bridged Dimer Phaeochromycin F by Streptomyces sp. OUCMDZ-4982 as a Possible Multipronged Chemical Defense Mechanism” (J Nat Prod, 2024)
Values after ≈ are worked out from the molar mass of the structure shown. Active and inactive are the calls of the source. The rule behind the calls is not given here.

How the values were obtained:
Staphylococcus aureus [1] = assay: Antibacterial activity against Staphylococcus aureus ATCC 6538 in absence of HCHO by microdilution method; format: functional
Staphylococcus aureus [2] = assay: Antibacterial activity against methicillin-resistant Staphylococcus aureus ATCC 43300 in absence of HCHO by microdilution method; format: functional
Escherichia coli = assay: Antibacterial activity against Escherichia coli ATCC 11175 incubated for 24 hrs by microdilution method; format: functional, organism-based
Candida albicans = assay: Antifungal activity against Candida albicans ATCC 10231 incubated for 24 hrs by microdilution method; format: functional, organism-based
Nakaseomyces glabratus = assay: Antifungal activity against Candida glabrata ATCC 2001 incubated for 24 hrs by microdilution method; format: functional, organism-based
Pseudomonas aeruginosa = assay: Antibacterial activity against Pseudomonas aeruginosa ATCC 10145 incubated for 24 hrs by microdilution method; format: functional, organism-based
Staphylococcus aureus [3] = assay: Antibacterial activity against Staphylococcus aureus ATCC 43300 incubated for 24 hrs by microdilution method; format: functional
Staphylococcus aureus [4] = assay: Antibacterial activity against methicillin-resistant Staphylococcus aureus ATCC 43300 incubated for 24 hrs by microdilution method; format: functional
[5] = Chemical reactivity of compound in formaldehyde assessed as (1S,2R,18R,19R,22S,25R,28R,40S)-48-[(2S,3R,4S,5S,6R)-3-[(2S,4S,5S,6S)-4-amino-5-hydroxy-4,6-dimethyl-tetrahydropyran-2-yl]oxy-4,5-dihydroxy-6-(hydroxymethyl)tetrahydropyran-2-yl]oxy-22-(2-amino-2-oxo-ethyl)-5,15-dichloro-2,18,32,35,37-pentahydroxy-19-[(4R)-4-isobutyl-3-methyl-5-oxo-imidazolidin-1-yl]-20,23,26,42,44-pentaoxo-7,13-dioxa-21, …; format: physicochemical
[6] = Chemical reactivity of compound in formaldehyde assessed as (4R,4aR,5aS,12aR)-9-(3-(tert-butyl)-5-oxoimidazolidin-1-yl)-4,7-bis(dimethylamino)-3,10,12,12a-tetrahydroxy-1,11-dioxo-1,4,4a,5,5a,6,11,12a-octahydrotetracene-2-carboxamide formation; format: physicochemical
[7] = Chemical reactivity of compound in acetaldehyde assessed as (1S,2R,18R,19R,22S,25R,28R,40S)-48-[(2S,3R,4S,5S,6R)-3-[(2S,4S,5S,6S)-4-amino-5-hydroxy-4,6-dimethyl-tetrahydropyran-2-yl]oxy-4,5-dihydroxy-6-(hydroxymethyl)tetrahydropyran-2-yl]oxy-22-(2-amino-2-oxo-ethyl)-5,15-dichloro-2,18,32,35,37-pentahydroxy-19-[(2R,4R)-4-isobutyl-2,3-dimethyl-5-oxo-imidazolidin-1-yl]-20,23,26,42,44-pentaoxo-7,13-di …; format: physicochemical
Bacillus subtilis [8] = assay: Antibacterial activity against Bacillus subtilis ATCC 6051 incubated for 24 hrs by microdilution method; format: functional
Staphylococcus aureus [9] = assay: microbe, parasite or virus in culture; conditions: ATCC 43300
Description: Antibacterial activity against methicillin-resistant Staphylococcus aureus ATCC 43300 in presence of 8 mg/L HCHO by microdilution method

Staphylococcus aureus [10] = assay: Bactericidal activity against Staphylococcus aureus ATCC 43300 incubated for 24 hrs by microdilution method; format: functional
Bacillus subtilis [11] = assay: Bactericidal activity against Bacillus subtilis ATCC 6051 incubated for 24 hrs by microdilution method; format: functional
Staphylococcus aureus [12] = assay: microbe, parasite or virus in culture; conditions: ATCC 43300; remark: listed apart in the source
Description: Antibacterial activity against methicillin-resistant Staphylococcus aureus ATCC 43300 in presence of 4 mg/L HCHO by microdilution method

[13] = Drug metabolism in Staphylococcus aureus ATCC 6538 assessed as (1S,2R,18R,19R,22S,25R,28R,40S)-48-[(2S,3R,4S,5S,6R)-3-[(2S,4S,5S,6S)-4-amino-5-hydroxy-4,6-dimethyl-tetrahydropyran-2-yl]oxy-4,5-dihydroxy-6-(hydroxymethyl)tetrahydropyran-2-yl]oxy-22-(2-amino-2-oxo-ethyl)-5,15-dichloro-2,18,32,35,37-pentahydroxy-19-[(4R)-4-isobutyl-3-methyl-5-oxo-imidazolidin-1-yl]-20,23,26,42,44-pentaoxo-7,13-dioxa- …; format: ADME
Staphylococcus aureus [14] = assay: microbe, parasite or virus in culture; conditions: ATCC 6538
Description: Antibacterial activity against Staphylococcus aureus ATCC 6538 in presence of 8 mg/L HCHO by microdilution method

Staphylococcus aureus [15] = assay: microbe, parasite or virus in culture; conditions: ATCC 6538; remark: listed apart in the source
Description: Antibacterial activity against Staphylococcus aureus ATCC 6538 in presence of 4 mg/L HCHO by microdilution method

Staphylococcus aureus [16] = assay: Bactericidal activity against Staphylococcus aureus ATCC 6538 incubated for 24 hrs by microdilution method; format: functional

Q: Which MIC (Staphylococcus aureus [1]) does the source give for `CC(C)C[C@@H]1C(=O)N([C@H]2C(=O)N[C@@H](CC(N)=O)C(=O)N[C@H]3C(=O)N[C@H]4C(=O)N[C@H](C(=O)N[C@H](C(=O)O)c5cc(O)cc(O)c5-c5cc4ccc5O)[C@H](O)c4ccc(c(Cl)c4)Oc4cc3cc(c4O[C@@H]3O[C@H](CO)[C@@H](O)[C@H](O)[C@H]3O[C@H]3C[C@](C)(N)[C@H](O)[C@H](C)O3)Oc3ccc(cc3Cl)[C@H]2O)CN1C` here?
A: Its MIC is 64 µg/mL (≈ 43.8 µM).

Q: What about the MIC (Staphylococcus aureus [2]) of the same compound?
A: Its MIC is 64 µg/mL (≈ 43.8 µM).

Q: What does the source list for `CC(=O)c1c(O)cccc1Cc1cc(O)c(Cc2c(O)cc(Cc3cccc4oc(C)cc(=O)c34)oc2=O)c(=O)o1`?
A: Activity (Escherichia coli): inactive; Activity (Candida albicans): inactive; Activity (Nakaseomyces glabratus): inactive; Activity (Pseudomonas aeruginosa): inactive

Q: What does the source list for `Cc1cc(=O)c2c(Cc3cc(O)c(Cc4c(O)cc(Cc5cc(=O)c6c(C)cc(O)cc6o5)oc4=O)c(=O)o3)cccc2o1`?
A: Activity (Escherichia coli): inactive; Activity (Candida albicans): inactive; Activity (Nakaseomyces glabratus): inactive; Activity (Pseudomonas aeruginosa): inactive

Q: For `CC1(O)CC(=O)c2c(Cc3cc(O)c(Cc4c(O)cc(Cc5cccc6c5C(=O)CC(C)(O)O6)oc4=O)c(=O)o3)cccc2O1` (centres undefined), which Activity (Escherichia coli) is on record?
A: Its Activity is “inactive”.

Q: And the Activity (Candida albicans)?
A: Its Activity is “inactive”.

Q: What about the Activity (Nakaseomyces glabratus) of the same compound?
A: The Activity was “inactive”.

Q: What about the Activity (Pseudomonas aeruginosa) of the same compound?
A: Its Activity is “inactive”.

Q: Which results are given for `Cc1cc(=O)c2c(Cc3cc(O)c(Cc4c(O)cc(Cc5cccc6c5C(=O)CC(C)(O)O6)oc4=O)c(=O)o3)cccc2o1` (centres undefined)?
A: Activity (Escherichia coli): inactive; Activity (Candida albicans): inactive; Activity (Nakaseomyces glabratus): inactive; Activity (Pseudomonas aeruginosa): inactive

Q: What does the source list for `Cc1cc(=O)c2c(Cc3cc(O)c(C(c4ccccc4)c4c(O)cc(Cc5cccc6oc(C)cc(=O)c56)oc4=O)c(=O)o3)cccc2o1`?
A: Activity (Escherichia coli): inactive; Activity (Candida albicans): inactive; Activity (Nakaseomyces glabratus): inactive; Activity (Pseudomonas aeruginosa): inactive

Q: With `CC(=O)CC(c1c(O)cc(Cc2cccc3oc(C)cc(=O)c23)oc1=O)c1c(O)cc(Cc2cccc3oc(C)cc(=O)c23)oc1=O` as the compound, how does the Activity (Escherichia coli) read?
A: The Activity was “inactive”.

Q: And the Activity (Candida albicans)?
A: The Activity was “inactive”.

Q: What about the Activity (Nakaseomyces glabratus) of the same compound?
A: The Activity was “inactive”.

Q: What about the Activity (Pseudomonas aeruginosa) of the same compound?
A: The Activity was “inactive”.

Q: Which Activity (Escherichia coli) does the source give for `Cc1cc(=O)c2c(Cc3cc(O)c(Cc4c(O)cc(CC5(O)CC(=O)c6c(C)cc(O)cc6O5)oc4=O)c(=O)o3)cccc2o1` (centres undefined) here?
A: The Activity was “inactive”.

Q: And the Activity (Candida albicans)?
A: Its Activity is “inactive”.

Q: And the Activity (Nakaseomyces glabratus)?
A: The Activity was “inactive”.

Q: What about the Activity (Pseudomonas aeruginosa) of the same compound?
A: Its Activity is “inactive”.

Q: With `CN(C)c1cc(N2CN(C(C)(C)C)CC2=O)c(O)c2c1C[C@H]1C[C@H]3[C@H](N(C)C)C(O)=C(C(N)=O)C(=O)[C@@]3(O)C(O)=C1C2=O` (single isomer, unassigned) as the compound, how does the MIC (Staphylococcus aureus [3]) read?
A: The MIC was 1 µg/mL (≈ 1.67 µM).

Q: What about the MIC (Staphylococcus aureus [4]) of the same compound?
A: Its MIC is 32 µg/mL (≈ 53.5 µM).

Q: Which Activity [5] does the source give for `CN(C)c1cc(NC(=O)CNC(C)(C)C)c(O)c2c1C[C@H]1C[C@H]3[C@H](N(C)C)C(O)=C(C(N)=O)C(=O)[C@@]3(O)C(O)=C1C2=O` [TIGECYCLINE] here?
A: Its Activity is “Active”.

Q: And the Activity [6]?
A: Its Activity is “Active”.

Q: What about the Activity [7] of the same compound?
A: The Activity was “Active”.

Q: And the MIC (Staphylococcus aureus [3])?
A: The MIC was 0.5 µg/mL (≈ 0.854 µM).

Q: And the MIC (Staphylococcus aureus [4])?
A: The MIC was 0.5 µg/mL (≈ 0.854 µM).

Q: Which MIC (Bacillus subtilis [8]) does the source give for `CN[C@H](CC(C)C)C(=O)N[C@H]1C(=O)N[C@@H](CC(N)=O)C(=O)N[C@H]2C(=O)N[C@H]3C(=O)N[C@H](C(=O)N[C@H](C(=O)O)c4cc(O)cc(O)c4-c4cc3ccc4O)[C@H](O)c3ccc(c(Cl)c3)Oc3cc2cc(c3O[C@@H]2O[C@H](CO)[C@@H](O)[C@H](O)[C@H]2O[C@H]2C[C@](C)(N)[C@H](O)[C@H](C)O2)Oc2ccc(cc2Cl)[C@H]1O` [VANCOMYCIN] here?
A: Its MIC is 0.5 µg/mL (≈ 0.345 µM).

Q: And the MIC (Staphylococcus aureus [9])?
A: Its MIC is 16 µg/mL (≈ 11 µM).

Q: And the MBC (Staphylococcus aureus [10])?
A: Its MBC is 4 µg/mL (≈ 2.76 µM).

Q: And the MBC (Bacillus subtilis [11])?
A: Its MBC is 0.5 µg/mL (≈ 0.345 µM).

Q: And the MIC (Staphylococcus aureus [12])?
A: The MIC was 8 µg/mL (≈ 5.52 µM).

Q: And the Drug metabolism [13]?
A: The Drug metabolism was “metabolite_detected”.

Q: And the Activity [5]?
A: The Activity was “Active”.

Q: What about the MIC (Staphylococcus aureus [14]) of the same compound?
A: Its MIC is 16 µg/mL (≈ 11 µM).

Q: What about the Activity [6] of the same compound?
A: Its Activity is “Active”.

Q: And the Activity [7]?
A: The Activity was “Active”.

Q: What about the MIC (Staphylococcus aureus [15]) of the same compound?
A: The MIC was 8 µg/mL (≈ 5.52 µM).

Q: What about the MBC (Staphylococcus aureus [16]) of the same compound?
A: Its MBC is 4 µg/mL (≈ 2.76 µM).
